In patent US20180284095A1, “BIOMARKERS ASSOCIATED WITH LSD1 INHIBITORS AND USES THEREOF” (Oryzon Genomics, S.A., priority 2015, published 2018):

Experiments:
[1] = tested on: SAMP8 mice; experiment: Novel Object Recognition Test (NORT) in SAMP8 mice; format: in vivo, mouse
From the text: The Senescence Accelerated Mouse Prone 8 (SAMP8) strain is a non-transgenic model for neurodegeneration reminiscent of Alzheimer's disease (T Takeda, Neurobiol Aging 1999, 20(2):105-10). Memory deficits appear around 5 months of age in SAMP8 mice and can be reliably assessed using the Novel Object Recognition Test (NORT).
Males and females were separated in two different cohorts and all treatments started at 5 months of age. […] Based on the results obtained in the first experiment, doses were adjusted in a second experiment using male mice.
The dose was calculated according to the animal water consumption average par cage and adjusted weekly. The test compound (or vehicle) was available for 5 days followed by a 2 day clearance in a weekly period.
NORT is used to assess animal's behavior when it is exposed to a novel and a familiar object (M Antunes and G Biala, Cogn Process. 2012, 13(2): 93-110). […]
The NORT test was performed after 2 (n=16/group) and repeated at 4 (n=10/group) months of treatment (between […] and 6:30 pm). […] During this second trial, objects A and B were placed in the maze, and the time that the animal explored the new object (tn) and the old object (to) were video-recorded. […]
Statistical analysis was performed using the GraphPad Prism 6.0 software package. NORT data from SAMP8 mice was analyzed by one-way ANOVA with treatment as the main factor. […]

[2] = Oral availability and blood-brain barrier crossing (statement)
[3] = tested on: SAMP8 mice; experiment: Platelet levels (hemogram) in SAMP8 mice; format: in vivo, mouse
Experimental: It is known that LSD1 is implicated in normal hematopoiesis (SprDssel et al, Leukemia 2012, 26(9)2039-51). […] The mice were sacrificed and blood was collected in sodium citrate-containing tubes for hemogram analysis. Platelets levels were determined in a standard hematology analyzer (Abacus Junior Vet, from Diatron) following the manufacturer's instructions.

(−) 5-((((trans)-2-(4-(benzyloxy)phenyl)cyclopropyl)amino)methyl)-1,3,4-oxadiazol-2-amine [Compound 1]
memory loss as assessed by NORT ([1]; SAMP8 males and females, after 2 m and 4 m of treatment): completely prevents memory loss | memory deficits (NORT), medium- and long-term memory ([1]; SAMP8 males, 0.32 and 0.96 mg/kg/day in drinking water, 2 and 4 months): rescued the memory deficits | blood-brain barrier crossing [2]: cross the blood-brain barrier | oral availability [2]: orally available | platelet levels ([3]; SAMP8, HD (3.2 mg/kg/day)): significant reduction of platelet levels | platelet levels ([3]; SAMP8, LD (0.96 mg/kg/day)): no significant reduction of platelet levels | platelet levels ([3]; SAMP8 males, 0.96 mg/kg/day, 16 weeks (4 months), vs vehicle-treated SAMP8, 0.96 mg/kg/day): no statistically significant effects | platelet levels ([3]; SAMP8 males, 0.96 mg/kg/day, 16 weeks (4 months), vs vehicle-treated SAMP8, listed as compound 1, 0.96 mg/kg/day): no changes in the platelet blood count
